Measured values from article PMC10377513, “Goldilocks Dilemma: LPS Works Both as the Initial Target and a Barrier for the Antimicrobial Action of Cationic AMPs on E. coli” (Biomolecules, 2023).
In brackets after ≈: the same amount, converted by molar mass. Residues, ends and D or L forms follow the SMILES beside them.

Assays:
[1] = system: E. coli ATCC 25922 lysate; experiment: NMR line shape analysis with sonicated cell lysate; assay type: binding; conditions: ATCC 25922 lysate versus live cells
Experimental: (§1) NMR spectra were acquired on a Bruker Avance III HD spectrometer operating at 600 MHz for ^1H, equipped with an inverse TCl cryo probe. All NMR spectra were acquired at 298 K using 5 mm tubes using standard pulse programs.
(§2) E. coli strains ATCC 25922, CCUG 70662, and NR 698 were grown until OD600 ≈ 0.6–0.8 in standard Lysogeny Broth at 37 °C from overnight colonies on agar plates. This allowed bacterial cultures to reach an exponential state of growth. CCUG 70662 was cultivated with and without 4 µg/mL of colistin in both agar and broth to allow for modification of the lipid A part of LPS [33]. After that, cells were carefully centrifuged by 6000× g for 10 min, the supernatant was discarded, and the cell pellet was resuspended in 10 mM Tris buffer with 100 mM NaCl and pH 7.4. The process was repeated two more times to wash out broth components and leftover colistin. […] The part of samples was diluted to OD = 1 in Tris buffer, and zeta potential was measured on Malvern Zetasizer Nano (Malvern Ins., Malvern, UK). […]
(§3) For the live cell NMR, the same E. coli strains as for the MIC testing (see above) were used. […] To measure the initial AMP:bacterial cell binding, we titrated an increasing number of cells into a known and fixed concentration of AMP and monitored the signal attenuation of the peptide (Figure 4A,B). […]

S. aureus ATCC 9144 = conditions: CLSI guidelines, MHBII; cited from earlier work
Experimental: (§4) Table 1 MIC and ζ potentials for the tested peptides against P. aeruginosa, S. aureus, and the three E. coli strains: ATCC 25922, LPS deficient—NR 698, and colistin-resistant CCUG 70662, which was tested after cultivation with (+) and without (−) 4 µg/mL of colistin, which caused a decrease of negative charge of the cell wall. MIC values for P. aeruginosa, S. aureus, and E. coli ATCC 25922 are rep | column: MIC (µg/mL) / S. aureus ATCC 9144

E. coli ATCC 25922 = conditions: CLSI guidelines, MHBII; cited from earlier work
Experimental: as §4, with “/ E. coli” for “/ S. aureus”, “ATCC 25922” for “ATCC 9144”

E. coli CCUG 70662 = system: E. coli CCUG 70662
Experimental: (§5) The bacterial strains tested were E. coli ATCC 25922, E. coli […], and E. coli NR-698. The MIC assays followed the CLSI guidelines. Overnight cultures and MIC assays were performed in MHBII (212322, Becton, Dickson and Company, Sparks, MD, USA). In addition, E. coli […] was tested after cultivation with 4 µg/mL of colistin to induce alternation in surface charge.
(§6) The antimicrobial activity of the five cyclic cationic AMPs was determined against S. aureus, P. aeruginosa, and three strains of E. coli: ATCC 25922, LPS colistin-resistant strain CCUG 70662, and LPS deficient strain NR 698 (Table 1). CCUG 70662 was cultivated in two conditions, both in the absence (−) and in the presence (+) of colistin (4 µg/mL). Resistance development can be monitored by measuring changes in the ζ-potential, reflecting the overall charge of the bacteria. […] In the NR 698 strain, translocation of LPS from the periplasmic space to the outer leaflet is hindered.

E. coli NR 698 = conditions: LPS deficient strain; CLSI guidelines, MHBII
Experimental: as §5, §6

P. aeruginosa ATCC 27853 = conditions: CLSI guidelines, MHBII; cited from earlier work
Experimental: as §4, with “/ P. aeruginosa” for “/ S. aureus”, “ATCC 27853” for “ATCC 9144”

[2] = system: E. coli NR 698 live cells; experiment: Live cell NMR (1H signal attenuation on cell titration); assay type: binding; conditions: E. coli NR 698 cells titrated into 1 mg/mL peptide, Tris buffer pH 7.4, 298 K; KD in estimated lipid concentration, Shortridge fit; read-out: KD from live cell NMR
Experimental: as §1, §2, §3

[3] = system: E. coli ATCC 25922 live cells; experiment: as above; assay type: binding; conditions: E. coli ATCC 25922 cells titrated into 1 mg/mL peptide, Tris buffer pH 7.4, 298 K; KD in estimated lipid concentration, Shortridge fit; read-out: KD from live cell NMR
Experimental: as §1, §2, §3

[4] = SPR, L1 chip, Biacore T200, room temperature, DMPC liposomes, 10 mM HEPES pH 7.4, 150 mM NaCl, steady-state fit; cited from earlier work
From the text: Introducing 5% of a negatively charged component (DMPG) to the liposomes doubled the KP of all peptides except c(WKWKWK), where the increase was less substantial.

[5] = SPR partitioning into immobilized liposomes; assay type: binding, E. coli; conditions: DMPC liposomes with 10% LPS versus DMPC and DMPC:PG
Experimental: The large unilamellar liposomes of DMPC and DMPC:PG (95:5) were prepared for the SPR experiment using standard methods. In brief, lipid mixtures were weighted from dry powder (Avanti, USA) and dissolved in 3:1 dichloromethane:methanol mixtures. The organic mixture was dried in a vacuum rotavapor to form a lipid film which was hydrated to 20 mM total concentration of lipids (for DMPC and DMPC:PG mixture) by adding 10 mM HEPES buffer pH 7.4 with 150 mM NaCl. For DMPC:LPS mixtures, dried LPS was dissolved in water and mixed with DMPC dissolved in dichloromethane. Isopropanol was added to the mixture until only one phase—dichloromethane:isopropanol:water was formed. Dry film was prepared and then hydrated using the same method as above to a concentration of 18 mM of DMPC and 10% (w/w) LPS in HEPES buffer. […]
The SPR experiments were performed at room temperature using the L1 chip and T200 Biacore instrument (GE Healthcare, Chicago, IL, USA). […] KD was obtained Using Equation (1) from a standard steady-state fit:(1) RU=RUMAX/1+KD/[P]+off, where RU is measured SPR response; RUMAX is RU response during saturation; [P] is peptide concentration; and off is offset of response. […]
SPR is emerging as the method of choice for measuring the partitioning of small compounds into lipid bilayers. […] From the estimated KD and the measured koff values, the association rate kon can be calculated (Equation (5)). […]

| SMILES | Increase in KD after sonication (lysate versus live cell ATCC 25922) [1] | MIC S. aureus ATCC 9144 (S. aureus ATCC 9144) | MIC E. coli ATCC 25922 (E. coli ATCC 25922) | MIC E. coli CCUG 70662+ (E. coli CCUG 70662) | MIC E. coli CCUG 70662− (E. coli CCUG 70662) | MIC E. coli NR 698 (E. coli NR 698) | MIC P. aeruginosa ATCC 27853 (P. aeruginosa ATCC 27853) | Kd [2] | Kd [3] | Partitioning constant KP [4] | Increase in KP with DMPC:LPS compared to the DMPC and DMPC:PG constructs [5] |
| --- | --- | --- | --- | --- | --- | --- | --- | --- | --- | --- | --- |
| N=C(N)NCCC[C@@H]1NC(=O)[C@H](Cc2c[nH]c3ccccc23)NC(=O)[C@H](CCCNC(=N)N)NC(=O)[C@H](Cc2c[nH]c3ccccc23)NC(=O)[C@H](CCCNC(=N)N)NC(=O)[C@H](Cc2c[nH]c3ccccc23)NC1=O [c(WRWRWR)] (HELM PEPTIDE1{W.R.W.R.W.R}$PEPTIDE1,PEPTIDE1,1:R1-6:R2$$$V2.0) | two-fold | 32 µg/mL (≈ 31.2 µM) | 32 µg/mL (≈ 31.2 µM) | 32 µg/mL (≈ 31.2 µM) | 16 µg/mL (≈ 15.6 µM) | 2 µg/mL (≈ 1.95 µM) | 64 µg/mL (≈ 62.3 µM) | > 500 µM | 50 to 200 µM | – | – |
| NCCCC[C@@H]1NC(=O)[C@H](Cc2c[nH]c3ccccc23)NC(=O)[C@H](CCCCN)NC(=O)[C@H](Cc2c[nH]c3ccccc23)NC(=O)[C@H](CCCCN)NC(=O)[C@H](Cc2c[nH]c3ccccc23)NC1=O [c(WKWKWK)] (HELM PEPTIDE1{W.K.W.K.W.K}$PEPTIDE1,PEPTIDE1,1:R1-6:R2$$$V2.0) | – | 128 µg/mL (≈ 136 µM) | 64 µg/mL (≈ 67.9 µM) | 64 µg/mL (≈ 67.9 µM) | 64 µg/mL (≈ 67.9 µM) | 4 µg/mL (≈ 4.24 µM) | >250 µg/mL | – | – | – | – |
| N=C(N)NCCC[C@@H]1NC(=O)[C@H](CCCNC(=N)N)NC(=O)[C@H](Cc2c[nH]c3ccccc23)NC(=O)[C@H](Cc2c[nH]c3ccccc23)NC(=O)[C@H](Cc2c[nH]c3ccccc23)NC(=O)[C@H](CCCNC(=N)N)NC1=O [c(WWWRRR)] (HELM PEPTIDE1{W.W.W.R.R.R}$PEPTIDE1,PEPTIDE1,1:R1-6:R2$$$V2.0) | – | 4 µg/mL (≈ 3.89 µM) | 8 µg/mL (≈ 7.79 µM) | 8 µg/mL (≈ 7.79 µM) | 8 µg/mL (≈ 7.79 µM) | 4 µg/mL (≈ 3.89 µM) | 16 µg/mL (≈ 15.6 µM) | – | – | 6649 | – |
| NCCCC[C@@H]1NC(=O)[C@H](CCCCN)NC(=O)[C@H](Cc2c[nH]c3ccccc23)NC(=O)[C@H](Cc2c[nH]c3ccccc23)NC(=O)[C@H](Cc2c[nH]c3ccccc23)NC(=O)[C@H](CCCCN)NC1=O [c(WWWKKK)] (HELM PEPTIDE1{W.W.W.K.K.K}$PEPTIDE1,PEPTIDE1,1:R1-6:R2$$$V2.0) | – | 32 µg/mL (≈ 33.9 µM) | 8 µg/mL (≈ 8.48 µM) | 4 µg/mL (≈ 4.24 µM) | 4 µg/mL (≈ 4.24 µM) | 2 µg/mL (≈ 2.12 µM) | 32 µg/mL (≈ 33.9 µM) | – | – | – | – |
| CC(C)C[C@@H]1NC(=O)[C@@H](CCCNC(=N)N)NC(=O)[C@H](CCCCN)NC(=O)[C@H](CC(N)=O)NC(=O)[C@@H](Cc2c[nH]c3ccccc23)NC(=O)[C@H](Cc2c[nH]c3ccccc23)NC1=O [c(LWwNKr)] (HELM PEPTIDE1{L.W.[dW].N.K.[dR]}$PEPTIDE1,PEPTIDE1,1:R1-6:R2$$$V2.0) | – | >250 µg/mL | >250 µg/mL | >250 µg/mL | >250 µg/mL | 32 µg/mL (≈ 36.2 µM) | >250 µg/mL | – | – | 278 | four-fold |
